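Each compound was tested at five concentrations against cells in 96-well plates for 48 hours. GI50 = concentration required for 50% inhibition of growth.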 Calls of active or inactive are those of the source. No stated cut-off is given here; in the data, active = GI50 up to about 1.1 µM and inactive = higher.
Assays:
Assay in all cases: growth of human tumour cells (NCI), 48 h
[1] = tested on: ACHN
[2] = tested on: RXF 393
[3] = tested on: HT-29
[4] = tested on: CCRF-CEM
[5] = tested on: COLO 205
[6] = tested on: KM12
[7] = tested on: OVCAR-4
[8] = tested on: SK-MEL-28
[9] = tested on: HL-60
[10] = tested on: SW-620
[11] = tested on: OVCAR-3
[12] = tested on: OVCAR-5
[13] = tested on: RPMI-8226
[14] = tested on: HCT-15
[15] = tested on: NCI-H460
[16] = tested on: MDA-MB-435
[17] = tested on: NCI-H522
[18] = tested on: MOLT-4
[19] = tested on: NCI/ADR-RES
[20] = tested on: MCF7

Row | SMILES | GI50 [1] | GI50 [2] | GI50 [3] | GI50 [4] | GI50 [5] | GI50 [6] | GI50 [7] | GI50 [8] | GI50 [9] | GI50 [10] | GI50 [11] | GI50 [12] | GI50 [13] | GI50 [14] | GI50 [15] | GI50 [16] | GI50 [17] | GI50 [18] | GI50 [19] | GI50 [20]
1 | O=c1c(Cl)c(Cl)cnn1CCCl | 0.904 µM (active) | 2.09 µM (inactive) | 2.81 µM (inactive) | 1.85 µM (inactive) | 2.24 µM (inactive) | 14.4 µM (inactive) | 1.57 µM (inactive) | 2.08 µM (inactive) | 2.19 µM (inactive) | 1.9 µM (inactive) | 3.47 µM (inactive) | 16.5 µM (inactive) | 6.5 µM (inactive) | 2.64 µM | 8.13 µM (inactive) | 2.82 µM (inactive) | 0.558 µM (active) | 2.54 µM (inactive) | – | –
2 | O=C(NO)C(=O)Nc1cc(Cl)ccc1Cl | > 100 µM (inactive) | > 100 µM (inactive) | > 100 µM (inactive) | 51.1 µM (inactive) | > 100 µM (inactive) | > 100 µM (inactive) | > 100 µM (inactive) | > 100 µM (inactive) | > 100 µM (inactive) | > 100 µM (inactive) | 90.6 µM (inactive) | > 100 µM (inactive) | > 100 µM (inactive) | > 100 µM | > 100 µM (inactive) | – | 23.9 µM (inactive) | 83.6 µM (inactive) | – | –
3 | COc1ccc2c3c([nH]c2c1CC=C(C)C)C(=O)C=C(C)C3=O | > 25 µM (inactive) | > 25 µM (inactive) | > 25 µM (inactive) | 8.36 µM (inactive) | > 25 µM (inactive) | > 25 µM (inactive) | 20.4 µM (inactive) | > 25 µM (inactive) | > 25 µM (inactive) | > 25 µM (inactive) | > 25 µM (inactive) | > 25 µM (inactive) | > 25 µM (inactive) | > 25 µM | > 25 µM (inactive) | – | 11.8 µM (inactive) | 18.5 µM (inactive) | – | –
4 | O=C(c1nc2ccccc2nc1O)C(O)c1ccco1 (centres undefined) | 54.5 µM (inactive) | > 100 µM (inactive) | > 100 µM (inactive) | > 100 µM (inactive) | > 100 µM (inactive) | 76.4 µM (inactive) | > 100 µM (inactive) | > 100 µM (inactive) | > 100 µM (inactive) | > 100 µM (inactive) | > 100 µM (inactive) | > 100 µM (inactive) | > 100 µM (inactive) | 51.8 µM | > 100 µM (inactive) | – | 25.9 µM (inactive) | > 100 µM (inactive) | – | –
5 | Cc1cc(Br)cc(C)c1NC(=O)C(=O)C(C(=O)c1ccc2ccccc2c1)C1OC(=O)c2ccccc21 (centres undefined) | 15.2 µM (inactive) | 5.93 µM (inactive) | 18.2 µM (inactive) | 3.94 µM (inactive) | 16.3 µM (inactive) | 15.5 µM (inactive) | 5.14 µM (inactive) | 8.97 µM (inactive) | 4.45 µM (inactive) | 8.02 µM (inactive) | 19.5 µM (inactive) | 7.14 µM (inactive) | 5.94 µM (inactive) | 17.3 µM | 4.66 µM (inactive) | – | 8.65 µM (inactive) | 2.31 µM (inactive) | – | –
6 | Cc1ccc(NC(=O)CCC(=O)C2Cc3ccccc3C2=O)cc1C (centres undefined) | > 100 µM (inactive) | > 100 µM (inactive) | > 100 µM (inactive) | > 100 µM (inactive) | > 100 µM (inactive) | > 100 µM (inactive) | > 100 µM (inactive) | > 100 µM (inactive) | > 100 µM (inactive) | > 100 µM (inactive) | > 100 µM (inactive) | > 100 µM (inactive) | > 100 µM (inactive) | > 100 µM | > 100 µM (inactive) | – | > 100 µM (inactive) | > 100 µM (inactive) | – | –
7 | COc1ccc(/C(Cl)=C(\CNc2ccccn2)c2ccccc2)cc1OC | > 100 µM (inactive) | > 100 µM (inactive) | > 100 µM (inactive) | > 100 µM (inactive) | > 100 µM (inactive) | > 100 µM (inactive) | > 100 µM (inactive) | > 100 µM (inactive) | > 100 µM (inactive) | > 100 µM (inactive) | – | > 100 µM (inactive) | > 100 µM (inactive) | > 100 µM | > 100 µM (inactive) | > 100 µM (inactive) | 99.8 µM (inactive) | > 100 µM (inactive) | > 100 µM (inactive) | –
8 | CC(C)(CN1C(=O)C(Cl)=C(Cl)C1=O)CN1C(=O)C(Cl)=C(Cl)C1=O | 9.44 µM (inactive) | 6 µM (inactive) | 13.2 µM (inactive) | 0.264 µM (active) | 3.23 µM (inactive) | 24.2 µM (inactive) | 21.7 µM (inactive) | 7.48 µM (inactive) | 0.552 µM (active) | 5 µM (inactive) | 8.02 µM (inactive) | 19.8 µM (inactive) | 1.71 µM (inactive) | 8.63 µM | 35 µM (inactive) | – | 1.62 µM (inactive) | 0.966 µM (active) | – | –
9 | C[N+](C)(Cc1ccc(NC(=O)CCCC(=O)ON2C(=O)CCC2=O)cc1)c1ccccc1 | < 0.01 µM (active) | > 1 µM (active) | < 0.01 µM (active) | < 0.01 µM (active) | < 0.01 µM (active) | < 0.01 µM (active) | < 0.01 µM (active) | < 0.01 µM (active) | < 0.01 µM (active) | < 0.01 µM (active) | < 0.01 µM (active) | < 0.01 µM (active) | < 0.01 µM (active) | > 1 µM | > 1 µM (active) | – | < 0.01 µM (active) | < 0.01 µM (active) | – | –
10 | CSCSSC | > 100 µM (inactive) | > 100 µM (inactive) | > 100 µM (inactive) | 40.6 µM (inactive) | > 100 µM (inactive) | > 57.3 µM (inactive) | – | > 57.3 µM (inactive) | 2.54 µM (inactive) | 49.4 µM (inactive) | > 100 µM (inactive) | > 100 µM (inactive) | 56.5 µM (inactive) | – | > 100 µM (inactive) | > 78 µM (inactive) | > 100 µM (inactive) | 4.67 µM (inactive) | > 100 µM (inactive) | –
11 | Cc1ccccc1/N=N/c1cc(C)c(/N=N/c2c(O)ccc3ccccc23)cc1C | > 100 µM (inactive) | > 100 µM (inactive) | > 100 µM (inactive) | > 100 µM (inactive) | > 100 µM (inactive) | > 100 µM (inactive) | > 100 µM (inactive) | > 100 µM (inactive) | – | > 100 µM (inactive) | > 100 µM (inactive) | > 100 µM (inactive) | > 100 µM (inactive) | > 100 µM | – | > 100 µM (inactive) | > 100 µM (inactive) | > 100 µM (inactive) | > 100 µM (inactive) | –
12 | CC(O)CNC1=CC(=O)C(=O)c2ccccc21 (centres undefined) | 18.5 µM (inactive) | 35.4 µM (inactive) | – | 37.9 µM (inactive) | 7.64 µM (inactive) | 19.2 µM (inactive) | 13.2 µM (inactive) | 19 µM (inactive) | 27.4 µM (inactive) | 15.5 µM (inactive) | 3 µM (inactive) | 19.5 µM (inactive) | 18.2 µM (inactive) | 15 µM | 14.3 µM (inactive) | 11.3 µM (inactive) | 18.5 µM (inactive) | 23 µM (inactive) | – | 19.5 µM (inactive)
13 | O=Cc1c(C(=O)O)[nH]c(=O)[nH]c1=O | > 100 µM (inactive) | > 100 µM (inactive) | > 100 µM (inactive) | > 100 µM (inactive) | > 100 µM (inactive) | > 100 µM (inactive) | – | > 100 µM (inactive) | > 100 µM (inactive) | > 100 µM (inactive) | > 100 µM (inactive) | 39.8 µM (inactive) | > 100 µM (inactive) | > 100 µM | > 100 µM (inactive) | > 100 µM (inactive) | 58.3 µM (inactive) | > 100 µM (inactive) | > 100 µM (inactive) | –
14 | CCN1C(=O)C(N=[N+]=[N-])(c2ccccc2)C(=O)c2ccccc21 (centres undefined) | > 100 µM (inactive) | 99.1 µM (inactive) | > 100 µM (inactive) | 55.1 µM (inactive) | > 100 µM (inactive) | > 100 µM (inactive) | 59 µM (inactive) | > 100 µM (inactive) | 21.6 µM (inactive) | > 100 µM (inactive) | 56.8 µM (inactive) | > 100 µM (inactive) | 35.6 µM (inactive) | 59.2 µM | 94.8 µM (inactive) | – | > 100 µM (inactive) | 43.1 µM (inactive) | – | –
15 | C=CCCC1CCCNC1=S (centres undefined) | > 100 µM (inactive) | > 100 µM (inactive) | > 100 µM (inactive) | – | > 100 µM (inactive) | – | > 100 µM (inactive) | > 100 µM (inactive) | – | > 100 µM (inactive) | – | > 100 µM (inactive) | > 100 µM (inactive) | > 100 µM | > 100 µM (inactive) | > 100 µM (inactive) | > 100 µM (inactive) | – | – | > 100 µM (inactive)
16 | CC1(C)CC2(C)CC1CC2(O)c1ccccc1 (centres undefined) | > 100 µM (inactive) | > 100 µM (inactive) | > 100 µM (inactive) | > 100 µM (inactive) | > 100 µM (inactive) | > 100 µM (inactive) | > 100 µM (inactive) | > 100 µM (inactive) | > 100 µM (inactive) | > 100 µM (inactive) | > 100 µM (inactive) | > 100 µM (inactive) | – | – | > 100 µM (inactive) | > 100 µM (inactive) | > 100 µM (inactive) | > 100 µM (inactive) | – | –
17 | COc1cc([C@@H]2c3cc4c(cc3[C@@H](OC(=O)c3ccc(N)cc3)C3COC(=O)[C@@H]32)OCO4)cc(OC)c1O (some centres undefined) | 7.74 µM (inactive) | 2.92 µM (inactive) | 3.21 µM (inactive) | 6.18 µM (inactive) | 5.98 µM (inactive) | 11.9 µM (inactive) | 45.4 µM (inactive) | 9.48 µM (inactive) | 3.1 µM (inactive) | 5.71 µM (inactive) | 12.9 µM (inactive) | 41.5 µM (inactive) | 7.8 µM (inactive) | 12.8 µM | 3.73 µM (inactive) | – | 2.07 µM (inactive) | 3.1 µM (inactive) | – | –
